Test results reported in patent publication US20080009418A1, “Selective Inhibitors” (Alchemia LTD., priority 2004, published 2008).

Columns and labels:
Conditions in all cases: compound at 10 μM
Human κ-Opioid (KOP) = biological target: T1, Human κ-Opioid (KOP) (Homo sapiens, UniProt P41145); assay: Radioligand binding, human κ-opioid (KOP) membranes, filtration, [3H]-Diprenorphine
T1 construct: purchased Perkin Elmer Biosignal
Outline: (§1)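 Percent inhibition of radioligand binding measured on recombinant human membranes: NK1 with [125I]-Substance P, KOP with [3H]-Diprenorphine. Incubation 1 h at room temperature, then harvest onto 0.3% PEI-soaked filters, cold Tris-HCl pH 7.4 washes and scintillation counting; non-specific binding from reference ligand wells.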

Human δ-opioid (DOP) = biological target: T2, Human δ-opioid (DOP) (Homo sapiens, UniProt P41143); assay: Radioligand binding, human δ-opioid (DOP) membranes, FlashPlate, [3H]-Bremazocine
T2 construct: purchased Perkin Elmer Biosignal
Outline: (§2)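 Cloned human receptor membranes were coated onto FlashPlate wells and incubated with radioligand and compound (added from a 0.5 mM DMSO daughter plate) for 1 hour at room temperature in the dark. Scintillation counting gave percent inhibition, with DMSO defining total and reference ligand defining non-specific binding.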

Human Melanocortin (MC4) = biological target: T3, Human Melanocortin (MC4) (Homo sapiens, UniProt P32245); assay: Radioligand binding, human melanocortin MC4 membranes, FlashPlate, [125I]-NDP-αMSH
T3 construct: purchased Perkin Elmer Biosignal
Outline: as §2

Human μ-opioid (MOP) = biological target: T4, Human μ-opioid (MOP) (Homo sapiens, UniProt P35372); assay: Radioligand binding, human μ-opioid (MOP) membranes, FlashPlate, [3H]-Naloxone
T4 construct: purchased Perkin Elmer Biosignal
Outline: as §2

[1] = biological target: T5, Human melanin-concentrating hormone (MCH1) (Homo sapiens, UniProt Q99705); assay: Radioligand binding, human melanin-concentrating hormone MCH1 membranes, FlashPlate, [125I]-S36057
T5 construct: purchased Perkin Elmer Biosignal
Outline: as §2

Human melanocortin (MC5) = biological target: T6, Human melanocortin (MC5) (Homo sapiens, UniProt P33032); assay: Radioligand binding, human melanocortin MC5 membranes, FlashPlate, [125I]-NDP-αMSH
T6 construct: purchased Perkin Elmer Biosignal
Outline: as §2

Mouse urotensin (mUR2) = biological target: T7, Mouse urotensin (mUR2) (Mus musculus, UniProt Q8VIH9); assay: Radioligand binding, mouse urotensin mUR2 membranes, FlashPlate, [125I]-Urotensin II
T7 construct: purchased Perkin Elmer Biosignal
T7 sequence (Q8VIH9 1-385): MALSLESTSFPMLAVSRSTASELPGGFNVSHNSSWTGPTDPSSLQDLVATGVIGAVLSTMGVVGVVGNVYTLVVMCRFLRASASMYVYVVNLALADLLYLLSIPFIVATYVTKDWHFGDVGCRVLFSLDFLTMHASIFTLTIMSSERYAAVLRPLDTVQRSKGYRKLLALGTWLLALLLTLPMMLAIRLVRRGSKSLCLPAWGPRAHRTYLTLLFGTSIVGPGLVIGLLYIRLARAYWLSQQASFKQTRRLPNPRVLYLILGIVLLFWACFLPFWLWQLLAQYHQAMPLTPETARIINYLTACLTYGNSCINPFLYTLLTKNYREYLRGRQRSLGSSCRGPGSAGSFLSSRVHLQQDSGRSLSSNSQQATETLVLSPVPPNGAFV
Outline: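 Cloned mouse urotensin (mUR2) receptor membranes from Perkin Elmer Biosignal were immobilized in FlashPlate microplates using a proprietary coating. Each well got 19.5 μl buffer, then 0.5 μl of DMSO, reference ligand, or compound. Adding 5 μl of [125I]-Urotensin II, diluted to 5× final concentration in binding buffer, started binding. Plates were sealed with TopSeal-A and incubated 1 hour at room temperature in the dark. Wells were counted for 30 seconds each on a TopCount after a 60-second delay, and percentage inhibition was calculated.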

Human neurokinin (NK1) = biological target: T8, Human neurokinin (NK1) (Homo sapiens, UniProt P25103); assay: Radioligand binding, human neurokinin NK1 membranes, filtration, [125I]-Substance P
T8 construct: purchased Perkin Elmer Biosignal
Outline: as §1

Human opioid (ORL1) = biological target: T9, Human opioid (ORL1) (Homo sapiens, UniProt P41146); assay: Radioligand binding, human opioid ORL1 membranes, FlashPlate, [125I]-Nociceptin
T9 construct: purchased Perkin Elmer Biosignal
Outline: as §2

[2] = biological target: T10, Human neuropeptide Y (NPY-Y1) (Homo sapiens, UniProt P25929); assay: Radioligand binding, human neuropeptide Y NPY-Y1 membranes, FlashPlate, [125I]-PYY
T10 construct: purchased Perkin Elmer Biosignal
T10 sequence (P25929 1-384): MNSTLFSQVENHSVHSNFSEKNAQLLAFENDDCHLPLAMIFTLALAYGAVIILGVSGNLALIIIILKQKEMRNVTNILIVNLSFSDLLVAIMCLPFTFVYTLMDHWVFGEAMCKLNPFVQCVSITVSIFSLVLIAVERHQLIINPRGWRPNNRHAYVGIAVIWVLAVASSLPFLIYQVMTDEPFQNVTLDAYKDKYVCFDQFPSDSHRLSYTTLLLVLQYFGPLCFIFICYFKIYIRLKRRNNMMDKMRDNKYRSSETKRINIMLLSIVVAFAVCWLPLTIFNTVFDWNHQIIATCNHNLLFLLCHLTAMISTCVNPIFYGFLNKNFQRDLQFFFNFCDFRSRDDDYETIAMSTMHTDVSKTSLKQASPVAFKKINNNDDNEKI
Outline: as §2

Human Melanocortin (MC3) = biological target: T11, Human Melanocortin (MC3) (Homo sapiens, UniProt P41968); assay: Radioligand binding, human melanocortin MC3 membranes, FlashPlate, [125I]-NDP-αMSH
T11 construct: purchased Perkin Elmer Biosignal
Outline: as §2

T11 sequence (P41968 whole entry): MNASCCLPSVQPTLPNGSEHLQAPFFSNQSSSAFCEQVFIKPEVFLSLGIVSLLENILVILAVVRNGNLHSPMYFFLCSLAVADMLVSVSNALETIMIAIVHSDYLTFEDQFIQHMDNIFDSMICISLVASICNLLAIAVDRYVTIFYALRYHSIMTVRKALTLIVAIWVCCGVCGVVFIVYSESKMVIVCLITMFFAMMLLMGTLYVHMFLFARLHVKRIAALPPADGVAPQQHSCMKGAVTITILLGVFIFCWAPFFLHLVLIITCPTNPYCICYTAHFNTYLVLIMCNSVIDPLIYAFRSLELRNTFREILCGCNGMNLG
T5 sequence (Q99705 whole entry): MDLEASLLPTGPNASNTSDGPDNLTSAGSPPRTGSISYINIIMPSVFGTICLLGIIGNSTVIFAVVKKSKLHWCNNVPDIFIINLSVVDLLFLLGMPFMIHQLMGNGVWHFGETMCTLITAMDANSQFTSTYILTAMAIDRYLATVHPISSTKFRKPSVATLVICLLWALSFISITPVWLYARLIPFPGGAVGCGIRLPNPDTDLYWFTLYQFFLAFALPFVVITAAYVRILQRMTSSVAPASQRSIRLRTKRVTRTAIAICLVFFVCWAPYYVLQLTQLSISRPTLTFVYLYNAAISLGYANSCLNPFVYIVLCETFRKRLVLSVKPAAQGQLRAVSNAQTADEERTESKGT
T1 sequence (P41145 whole entry): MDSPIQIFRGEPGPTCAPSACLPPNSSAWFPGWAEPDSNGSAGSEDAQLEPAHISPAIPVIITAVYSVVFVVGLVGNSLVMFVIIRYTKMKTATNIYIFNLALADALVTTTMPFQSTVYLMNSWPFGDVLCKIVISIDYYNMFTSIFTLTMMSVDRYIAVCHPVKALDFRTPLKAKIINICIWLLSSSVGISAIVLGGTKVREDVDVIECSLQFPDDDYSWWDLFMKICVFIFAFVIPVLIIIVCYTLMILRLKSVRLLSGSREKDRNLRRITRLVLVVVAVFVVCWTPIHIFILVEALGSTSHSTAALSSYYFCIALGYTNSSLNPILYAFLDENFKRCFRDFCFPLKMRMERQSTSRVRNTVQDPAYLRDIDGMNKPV
T2 sequence (P41143 whole entry): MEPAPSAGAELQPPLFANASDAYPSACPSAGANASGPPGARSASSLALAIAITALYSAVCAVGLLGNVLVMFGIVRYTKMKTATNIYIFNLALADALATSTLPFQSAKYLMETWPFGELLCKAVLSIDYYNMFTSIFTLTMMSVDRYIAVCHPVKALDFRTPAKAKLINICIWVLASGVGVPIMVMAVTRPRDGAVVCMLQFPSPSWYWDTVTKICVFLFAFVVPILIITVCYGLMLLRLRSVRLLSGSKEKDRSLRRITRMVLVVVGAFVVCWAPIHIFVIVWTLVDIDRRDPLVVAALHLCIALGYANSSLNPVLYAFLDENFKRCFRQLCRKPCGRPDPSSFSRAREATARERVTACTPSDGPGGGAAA
T6 sequence (P33032 whole entry): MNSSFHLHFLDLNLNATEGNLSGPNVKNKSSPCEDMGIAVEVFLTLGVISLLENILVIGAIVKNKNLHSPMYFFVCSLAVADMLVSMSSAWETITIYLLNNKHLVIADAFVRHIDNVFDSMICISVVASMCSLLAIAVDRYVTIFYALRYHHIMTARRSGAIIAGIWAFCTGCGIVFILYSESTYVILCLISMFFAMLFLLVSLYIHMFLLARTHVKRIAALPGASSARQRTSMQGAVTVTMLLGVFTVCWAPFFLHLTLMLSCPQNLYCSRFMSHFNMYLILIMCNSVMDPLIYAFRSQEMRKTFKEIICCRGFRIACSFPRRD
T4 sequence (P35372 whole entry): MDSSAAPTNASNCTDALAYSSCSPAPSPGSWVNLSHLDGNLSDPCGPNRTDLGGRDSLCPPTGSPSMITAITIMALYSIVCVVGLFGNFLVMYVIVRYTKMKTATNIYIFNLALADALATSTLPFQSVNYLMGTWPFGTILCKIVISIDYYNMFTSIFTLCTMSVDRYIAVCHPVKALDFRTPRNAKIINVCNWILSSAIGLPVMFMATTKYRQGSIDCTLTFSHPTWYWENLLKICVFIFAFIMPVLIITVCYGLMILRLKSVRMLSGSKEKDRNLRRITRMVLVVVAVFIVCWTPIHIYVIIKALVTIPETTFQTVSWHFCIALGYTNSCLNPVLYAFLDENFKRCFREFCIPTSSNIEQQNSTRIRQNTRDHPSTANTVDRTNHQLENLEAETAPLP
T8 sequence (P25103 whole entry): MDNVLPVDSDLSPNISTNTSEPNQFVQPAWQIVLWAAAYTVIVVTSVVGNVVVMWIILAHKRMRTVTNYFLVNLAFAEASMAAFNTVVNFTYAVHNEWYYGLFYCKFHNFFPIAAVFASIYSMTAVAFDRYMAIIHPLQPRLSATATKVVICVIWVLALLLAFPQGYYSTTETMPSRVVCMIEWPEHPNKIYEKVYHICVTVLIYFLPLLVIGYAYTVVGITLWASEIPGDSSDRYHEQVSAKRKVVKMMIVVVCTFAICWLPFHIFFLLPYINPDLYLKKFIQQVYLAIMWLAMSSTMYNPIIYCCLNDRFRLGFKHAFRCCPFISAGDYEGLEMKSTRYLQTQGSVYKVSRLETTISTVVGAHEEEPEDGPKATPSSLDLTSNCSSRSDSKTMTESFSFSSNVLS
T9 sequence (P41146 whole entry): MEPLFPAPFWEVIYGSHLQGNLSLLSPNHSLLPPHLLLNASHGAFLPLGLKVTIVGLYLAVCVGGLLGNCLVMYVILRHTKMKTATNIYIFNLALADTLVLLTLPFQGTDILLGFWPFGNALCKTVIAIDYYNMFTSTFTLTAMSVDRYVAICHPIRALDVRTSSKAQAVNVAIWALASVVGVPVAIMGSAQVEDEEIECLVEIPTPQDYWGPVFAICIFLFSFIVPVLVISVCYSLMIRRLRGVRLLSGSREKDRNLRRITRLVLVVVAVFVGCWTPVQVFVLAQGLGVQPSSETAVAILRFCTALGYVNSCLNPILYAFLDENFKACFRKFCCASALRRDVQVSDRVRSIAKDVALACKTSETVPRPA
T3 sequence (P32245 whole entry): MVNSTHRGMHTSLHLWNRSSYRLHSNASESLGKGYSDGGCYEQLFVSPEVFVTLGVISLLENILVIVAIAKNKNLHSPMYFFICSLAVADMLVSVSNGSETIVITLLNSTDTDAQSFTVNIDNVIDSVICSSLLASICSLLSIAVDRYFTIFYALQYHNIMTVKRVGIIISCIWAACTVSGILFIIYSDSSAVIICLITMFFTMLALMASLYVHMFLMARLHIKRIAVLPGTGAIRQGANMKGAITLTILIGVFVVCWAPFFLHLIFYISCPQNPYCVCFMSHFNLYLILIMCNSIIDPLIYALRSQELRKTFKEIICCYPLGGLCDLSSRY

CSC1O[C@H](COCc2ccc(Cl)cc2)[C@@H](O)[C@@H](OCc2ccc(-c3ccccc3)cc2)[C@H]1NC(=O)CCN (stereo partly drawn) [compound 290]
A2: inhibition of radioligand binding, human κ-opioid (KOP) (Human κ-Opioid (KOP); [3H]-Diprenorphine): − (“−” indicates less than 50% inhibition at 10 μM)
A1: inhibition of radioligand binding, human δ-opioid (DOP) (Human δ-opioid (DOP); [3H]-Bremazocine): − (“−” indicates less than 50% inhibition at 10 μM)
A4: inhibition of radioligand binding, human melanocortin (MC4) (Human Melanocortin (MC4); [125I]-NDP-αMSH): − (“−” indicates less than 50% inhibition at 10 μM)
A7: inhibition of radioligand binding, human μ-opioid (MOP) (Human μ-opioid (MOP); [3H]-Naloxone): − (“−” indicates less than 50% inhibition at 10 μM)
A6: inhibition of radioligand binding, human melanin-concentrating hormone (MCH1) ([1]; [125I]-S36057): − (“−” indicates less than 50% inhibition at 10 μM)
A5: inhibition of radioligand binding, human melanocortin (MC5) (Human melanocortin (MC5); [125I]-NDP-αMSH): + (“+” indicates greater than 50% inhibition at 10 μM)
A11: inhibition of radioligand binding, mouse urotensin (mUR2) (Mouse urotensin (mUR2); [125I]-Urotensin II): − (“−” indicates less than 50% inhibition at 10 μM)
A8: inhibition of radioligand binding, human neurokinin (NK1) (Human neurokinin (NK1); [125I]-Substance P): + (“+” indicates greater than 50% inhibition at 10 μM)
A10: inhibition of radioligand binding, human opioid (ORL1) (Human opioid (ORL1); [125I]-Nociceptin): − (“−” indicates less than 50% inhibition at 10 μM)
A9: inhibition of radioligand binding, human neuropeptide Y (NPY-Y1) ([2]; [125I]-PYY): − (“−” indicates less than 50% inhibition at 10 μM)
A3: inhibition of radioligand binding, human melanocortin (MC3) (Human Melanocortin (MC3); [125I]-NDP-αMSH): − (“−” indicates less than 50% inhibition at 10 μM)

COCC1OC(OCCc2ccccc2)C(NC(=O)CNC(=N)N)C(OCc2ccc(Cl)cc2)C1O (stereo not drawn) [compound 220]
A2: inhibition of radioligand binding (Human κ-Opioid (KOP); [3H]-Diprenorphine, filtration): − (“−” indicates less than 50% inhibition at 10 μM)
A1: inhibition of radioligand binding (Human δ-opioid (DOP); [3H]-Bremazocine, FlashPlate): − (“−” indicates less than 50% inhibition at 10 μM)
A4: inhibition of radioligand binding (Human Melanocortin (MC4); [125I]-NDP-αMSH, FlashPlate): + (“+” indicates greater than 50% inhibition at 10 μM)
A7: inhibition of radioligand binding (Human μ-opioid (MOP); [3H]-Naloxone, FlashPlate): − (“−” indicates less than 50% inhibition at 10 μM)
A6: inhibition of radioligand binding ([1]; [125I]-S36057, FlashPlate): − (“−” indicates less than 50% inhibition at 10 μM)
A5: inhibition of radioligand binding (Human melanocortin (MC5); [125I]-NDP-αMSH, FlashPlate): + (“+” indicates greater than 50% inhibition at 10 μM)
A11: inhibition of radioligand binding (Mouse urotensin (mUR2); [125I]-Urotensin II, FlashPlate): − (“−” indicates less than 50% inhibition at 10 μM)
A8: inhibition of radioligand binding (Human neurokinin (NK1); [125I]-Substance P, filtration): + (“+” indicates greater than 50% inhibition at 10 μM)
A10: inhibition of radioligand binding (Human opioid (ORL1); [125I]-Nociceptin, FlashPlate): − (“−” indicates less than 50% inhibition at 10 μM)
A9: inhibition of radioligand binding ([2]; [125I]-PYY, FlashPlate): − (“−” indicates less than 50% inhibition at 10 μM)
A3: inhibition of radioligand binding (Human Melanocortin (MC3); [125I]-NDP-αMSH, FlashPlate): + (“+” indicates greater than 50% inhibition at 10 μM)

CO[C@H]1[C@H](O)[C@@H](COCc2ccccc2)OC(OCc2ccc3ccccc3c2)[C@@H]1NC(=O)CNC(=N)N (stereo partly drawn) [compound 74]
A2 radioligand binding inhibition (Human κ-Opioid (KOP); human κ-opioid (KOP) membranes): − (“−” indicates less than 50% inhibition at 10 μM)
A1 radioligand binding inhibition (Human δ-opioid (DOP); human δ-opioid (DOP) membranes): − (“−” indicates less than 50% inhibition at 10 μM)
A4 radioligand binding inhibition (Human Melanocortin (MC4); human melanocortin MC4 membranes): − (“−” indicates less than 50% inhibition at 10 μM)
A7 radioligand binding inhibition (Human μ-opioid (MOP); human μ-opioid (MOP) membranes): + (“+” indicates greater than 50% inhibition at 10 μM)
A6 radioligand binding inhibition ([1]; human MCH1 membranes): − (“−” indicates less than 50% inhibition at 10 μM)
A5 radioligand binding inhibition (Human melanocortin (MC5); human melanocortin MC5 membranes): + (“+” indicates greater than 50% inhibition at 10 μM)
A11 radioligand binding inhibition (Mouse urotensin (mUR2); mouse urotensin mUR2 membranes): − (“−” indicates less than 50% inhibition at 10 μM)
A8 radioligand binding inhibition (Human neurokinin (NK1); human neurokinin NK1 membranes): + (“+” indicates greater than 50% inhibition at 10 μM)
A10 radioligand binding inhibition (Human opioid (ORL1); human ORL1 membranes): − (“−” indicates less than 50% inhibition at 10 μM)
A9 radioligand binding inhibition ([2]; human NPY-Y1 membranes): − (“−” indicates less than 50% inhibition at 10 μM)
A3 radioligand binding inhibition (Human Melanocortin (MC3); human melanocortin MC3 membranes): − (“−” indicates less than 50% inhibition at 10 μM)
